According to patent publication US20110135588A1, “Hair Conditioning Composition Comprising Quaternized Silicone Polymer, Silicone Copolymer, and Carbamate” (priority 2009, published 2011):

Test: Product appearance (compatibility with the quaternized silicone polymer and/or solvent thereof): silicone particle size observed by microscope
Assay type: physicochemical
Conditions: preservative used together with quaternized silicone polymer and its solvent
Method: Product Appearance (Compatibility with the Quaternized Silicone Polymer and/or Solvent Thereof)
Product appearance is evaluated as follows, by silicone particle size in compositions which was observed using micro scope.
Pass: Average silicone particle size is 200 μm or less
Fail: Average silicone particle size is above 200 μm (excluding 200 μm)

| SMILES | Agglomeration of quaternized silicone polymer (product appearance) |
| --- | --- |
| C/C=C/C=C/C(=O)[O-].[K+] [potassium sorbate] | form agglomerates |
| O=C(O)c1ccccc1O [salicylic acid] | form agglomerates |
